Experimental data: patent publication US20100099770A1, “METHOD FOR TREATING DIABETIC PERIPHERAL NEUROPATHIC PAIN” (SCHWARZ PHARMA AG, priority 2001, published 2010)
“Also recorded” adds a separate entry of the source. Marks after values point to notes of the source that are not given here.

Experiments:
[1] = system: acute spinal thermal nociception; test: Tail flick test, rat; type: in vivo; conditions: for Anti-nociceptive effect: ±SEM
Excerpt: Harkoseride was additionally tested for potential activity in acute spinal thermal nociception using the tail flick test. In this model of acute thermal spinal/reflex hyperalgesia radiant heat is applied to the animal's tail approximately 2 cm from the tip and time latency for withdrawal reaction is automatically assessed by an algometer, a defined maximal stimulus time prevents tissue damage. This test is widely used as an assay for the anti-nociceptive efficacy of pharmacological agents and is highly predictive of acute analgesic efficacy in humans.
Results for 20 and 40 mg/kg harkoseride i.p are shown in table 5 [percent anti-nociception, calculated as [{(post-drug latency)−(pre-drug-latency)}/{(max. latency)−(pre-drug latency)}×100]±SEM, n=12/group]. A baseline or pre-drug tail-flick latency was determined by averaging 5 consecutive measurements taken 2 minutes apart. Vehicle (sterile water 0.04 ml/10 g body weight) or harkoseride were then administered and tail flick latencies recorded at 10-minute intervals for the next 60 minutes.

[2] = system: formalin-induced nociception (paw licking); test: Subchronic inflammatory nociception in mice (formalin test); type: in vivo; conditions: for nociceptive threshold, early phase: 0-5 min after formalin (acute pain); for nociceptive threshold, late phase: 20-30 min after formalin (subchronic inflammatory pain); for effect on formalin-induced nociceptive response (in words): 10, 20, 40 mg/kg i.p.
Description: Subchronic inflammatory nocicpetion in mice was induced by the subplantar injection of formalin (0.02 ml of a 5% solution). Nociceptive behaviour (paw licking) was measured and quantified between 0 and 5 min (acute pain) and between 20 and 30 min (subchronic inflammatory pain) after formalin.
Drugs and experimental design: SPM 927 and GBP were suspended in 1% methylcellulose and administered i.p. at doses of 10 mg/kg, 20 mg/kg and 40 mg/kg. Pre-treatment time was 30 min before pain measurement. One group of animals served as controls and consequently received an injection of solvent (10 ml/kg) and another group of animals received a reference compound (Carrageenan test: 10 mg/kg indomethacin; Formalin test: 10 mg/kg morphine). Each compound was tested in a separate experiment and each experiment included a control and a reference group. 10 rats per group were used in the Carrageenan test and 6 mice per group in the formalin test.

COC[C@@H](NC(C)=O)C(=O)NCc1ccccc1 [SPM 927, (R)-2-Acetamido-N-benzyl-3-methoxypropionamide]
Anti-nociceptive effect ([1]; 20 mg/kg i.p., 10 min after drug): 5.0 ± 3.94% | Anti-nociceptive effect ([1]; 20 mg/kg i.p., 20 min after drug): 9.7 ± 7.51% | Anti-nociceptive effect ([1]; 20 mg/kg i.p., 30 min after drug): 9.7 ± 2.37% | Anti-nociceptive effect ([1]; 20 mg/kg i.p., 40 min after drug): 1.7 ± 7.42% | Anti-nociceptive effect ([1]; 20 mg/kg i.p., 50 min after drug): 5.4 ± 4.12% | Anti-nociceptive effect ([1]; 20 mg/kg i.p., 60 min after drug): 8.1 ± 5.20% | Anti-nociceptive effect ([1]; 40 mg/kg i.p., 10 min after drug): −1.6 ± 12.82% | Anti-nociceptive effect ([1]; 40 mg/kg i.p., 20 min after drug): −4.3 ± 14.04% | Anti-nociceptive effect ([1]; 40 mg/kg i.p., 30 min after drug): −2.3 ± 9.14% | Anti-nociceptive effect ([1]; 40 mg/kg i.p., 40 min after drug): −4.4 ± 11.44% | Anti-nociceptive effect ([1]; 40 mg/kg i.p., 50 min after drug): 0.3 ± 15.50% | Anti-nociceptive effect ([1]; 40 mg/kg i.p., 60 min after drug): −5.5 ± 14.11% | effect in the tail flick test (in words) ([1]; 20 and 40 mg/kg i.p., listed as harkoseride): negative results; also recorded: little or no effect; also recorded: no anti-nociceptive effect | nociceptive threshold, early phase ([2]; 10 mg/kg i.p.): 67 ± 15 s | nociceptive threshold, late phase ([2]; 10 mg/kg i.p.): 58 ± 16^a s | nociceptive threshold, early phase ([2]; 20 mg/kg i.p.): 69 ± 8 s | nociceptive threshold, late phase ([2]; 20 mg/kg i.p.): 128 ± 16 s | nociceptive threshold, early phase ([2]; 40 mg/kg i.p.): 8 ± 8^a s | nociceptive threshold, late phase ([2]; 40 mg/kg i.p.): 17 ± 17^a s | effect on formalin-induced nociceptive response (in words) [2]: near complete reversal | effect on formalin-induced nociceptive response (in words) ([2]; listed as SPM-927): dose dependently suppressed
